# Measured values reported in US20250051338A1, “TYK2 DEGRADERS AND USES THEREOF” (Kymera Therapeutics, Inc., priority 2021, published 2025).
# Key:
# Assay type in all cases: cell-based
# TYK2 [1] = biological target: T1, TYK2 (Homo sapiens, UniProt P29597); assay: TYK2 degradation MSD assay in human PBMC cells; set-up: endogenous in cells; host or cells: human PBMC; conditions: 4 to 24 hours incubation, read-out: TYK2 MSD DC50 rating in human PBMC
# Summary of the method: (§1)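 Compound-driven TYK2 loss is measured with a Meso Scale Discovery sandwich assay on whole-cell lysates. Cells are incubated 4 to 24 hours at 37° C with nine 1:3-diluted doses topping at 1 to 10 μM, and DC50 values derive from four-parameter curve fitting.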
# TYK2 [2] = biological target: T1, TYK2; assay: TYK2 degradation MSD assay in EBV-B cells; set-up: endogenous in cells; host or cells: EBV-B cells; conditions: 4 to 24 hours incubation, read-out: TYK2 MSD DC50 rating in EBV-B
# Summary of the method: as §1
# TYK2 [3] = biological target: T1, TYK2; assay: TYK2 degradation MSD assay in OCI-LY10 cells; set-up: endogenous in cells; host or cells: EBV-B cells; conditions: 4 to 24 hours incubation, read-out: TYK2 MSD DC50 rating in OCI-LY10
# Summary of the method: as §1
# T1 sequence (P29597 whole entry): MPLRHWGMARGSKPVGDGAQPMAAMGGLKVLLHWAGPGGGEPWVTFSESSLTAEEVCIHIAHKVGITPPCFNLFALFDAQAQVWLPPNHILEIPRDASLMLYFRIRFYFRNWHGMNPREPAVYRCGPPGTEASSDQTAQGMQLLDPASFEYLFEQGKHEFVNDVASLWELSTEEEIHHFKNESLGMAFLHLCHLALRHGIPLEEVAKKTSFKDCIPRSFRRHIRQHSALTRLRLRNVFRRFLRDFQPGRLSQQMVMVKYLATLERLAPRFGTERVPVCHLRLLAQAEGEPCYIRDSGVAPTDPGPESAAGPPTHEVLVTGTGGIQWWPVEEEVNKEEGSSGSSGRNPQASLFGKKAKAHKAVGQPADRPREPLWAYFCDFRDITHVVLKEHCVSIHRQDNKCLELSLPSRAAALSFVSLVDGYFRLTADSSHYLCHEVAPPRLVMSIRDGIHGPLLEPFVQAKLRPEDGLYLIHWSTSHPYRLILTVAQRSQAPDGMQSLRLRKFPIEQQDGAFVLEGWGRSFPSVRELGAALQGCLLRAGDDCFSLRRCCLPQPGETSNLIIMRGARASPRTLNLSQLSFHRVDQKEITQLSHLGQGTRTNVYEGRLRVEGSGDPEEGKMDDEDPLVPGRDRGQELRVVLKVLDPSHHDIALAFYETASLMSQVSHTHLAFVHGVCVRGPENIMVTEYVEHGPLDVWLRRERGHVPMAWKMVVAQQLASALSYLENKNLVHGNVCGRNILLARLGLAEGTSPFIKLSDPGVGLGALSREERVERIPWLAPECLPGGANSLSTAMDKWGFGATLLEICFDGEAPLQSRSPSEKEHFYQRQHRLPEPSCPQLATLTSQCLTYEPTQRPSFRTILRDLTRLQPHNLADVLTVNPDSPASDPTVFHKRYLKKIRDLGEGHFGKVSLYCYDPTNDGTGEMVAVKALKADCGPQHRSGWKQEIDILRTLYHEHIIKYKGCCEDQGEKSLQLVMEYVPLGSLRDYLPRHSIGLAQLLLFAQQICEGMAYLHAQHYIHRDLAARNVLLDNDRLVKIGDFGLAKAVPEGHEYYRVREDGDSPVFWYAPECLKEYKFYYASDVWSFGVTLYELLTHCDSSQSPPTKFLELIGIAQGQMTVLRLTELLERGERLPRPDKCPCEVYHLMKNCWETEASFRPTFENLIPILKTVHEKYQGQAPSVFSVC
SMILES,DC50 (TYK2 [1]) [nM],DC50 (TYK2 [2]) [nM],DC50 (TYK2 [3]) [nM]
CNc1cc(-c2cnn(C3CN(C(=O)NCCCCCCCCc4cccc5c4n(C)c(=O)n5C4CCC(=O)NC4=O)C3)c2)nn2c(C(=O)N[C@@H]3C[C@@H]3F)cnc12 (stereo partly drawn) [Example K319],> 100,> 100,> 100
CNc1cc(Nc2cccn(-c3ccc(C(=O)N4CCC(n5cc(-c6ccc7c(c6)n(C)c(=O)n7C6CCC(=O)NC6=O)cn5)CC4)cn3)c2=O)nn2c(C(=O)N[C@@H]3C[C@@H]3F)cnc12 (stereo partly drawn) [Example K395],> 100,< 1,> 100
CNc1cc(Nc2cc(F)cc(-c3ccc(CN4CCN(c5ccc(-c6ccc7c(c6)n(C)c(=O)n7C6CCC(=O)NC6=O)cc5)CC4)cn3)c2OC)nn2c(C(=O)N[C@@H]3C[C@@H]3F)cnc12 (stereo partly drawn) [Example K577],> 100,> 100,1 to 10
CNc1cc(Nc2cccc(-c3ccc(CN4CCN(c5ccc(-c6ccc7c(c6)n(C)c(=O)n7C6CCC(=O)NC6=O)cc5)CC4)cn3)c2OC)nn2c(C(=O)NC3CC3C)cnc12 (stereo not drawn) [Example K542],> 100,> 100,1 to 10
CNc1cc(Nc2cccc(CN3CCC(c4cccc5c4n(C)c(=O)n5C4CCC(=O)NC4=O)CC3)c2)nn2c(C(=O)NC3CC3)cnc12 (stereo not drawn) [Example K578],> 100,> 100,> 100
CNc1cc(Nc2cccc(-c3ccc(CN4CCN(c5ccc(-c6ccc7c(c6)n(C)c(=O)n7C6CCC(=O)NC6=O)cc5)CC4)cn3)c2Cl)nn2c(C(=O)N[C@@H]3C[C@@H]3F)cnc12 (mixture of isomers) [Example K541],> 100,> 100,< 1
Cn1c(=O)n(C2CCC(=O)NC2=O)c2ccc(CCCCNC(=O)c3ccc(-n4cccc(Nc5ccc6ncc(C(=O)N[C@@H]7C[C@@H]7F)n6n5)c4=O)nc3)cc21 (stereo partly drawn) [Example K325],> 100,> 100,> 100
CNC(=O)c1cnc(Nc2ccc(C(=O)NCCCCCCc3ccc4c(c3)n(C)c(=O)n4C3CCC(=O)NC3=O)cn2)cc1Nc1cccc(-c2ncc(F)cn2)c1OC (stereo not drawn) [Example K110],< 1,> 100,> 100
CNc1cc(Nc2cccc(-c3ccc(CN4CCN(c5ccc(-c6ccc7c(c6)n(C)c(=O)n7C6CCC(=O)NC6=O)cc5)CC4)cn3)c2OC)nn2c(C(=O)NC(C)C)cnc12 (stereo not drawn) [Example K528],> 100,> 100,1 to 10
CNc1cc(Nc2cccn(-c3ccc(C(=O)N4CCCC5(C4)CN(c4ncc(C#Cc6ccc7c(c6)n(C)c(=O)n7C6CCC(=N)NC6=O)cn4)C5)cn3)c2=O)nn2c(C(=O)N[C@@H]3C[C@@H]3F)cnc12 (stereo partly drawn) [Example K371],> 100,1 to 10,> 100
CNc1cc(N(C)c2cccc(-c3ccc(CN4CCN(c5ccc(-c6ccc7c(c6)n(C)c(=O)n7C6CCC(=O)NC6=O)cc5)CC4)cn3)c2)nn2c(C(=O)N[C@@H]3C[C@@H]3F)cnc12 (stereo partly drawn) [Example K481],> 100,> 100,> 100
CNc1cc(Nc2cccn(-c3ccc(C(=O)N[C@H]4CC[C@H](CN5CCC6(CC5)CN(Cc5cccc7c5n(C)c(=O)n7C5CCC(=O)NC5=O)C6)CC4)cn3)c2=O)nn2c(C(=O)N[C@@H]3C[C@@H]3F)cnc12 (stereo partly drawn) [Example K430],> 100,1 to 10,< 1
CNc1cc(Nc2cccn(-c3ccc(C(=O)NCCCCc4ccc5c(c4)n(C)c(=O)n5C4CCC(=O)NC4=O)cn3)c2=O)nn2c(C(=O)NC3CCC3)cnc12 (stereo not drawn) [Example K321],> 100,> 100,> 100
CNc1cc(Nc2cccc(C3CCN(C(=O)Cc4cccc5c4n(C)c(=O)n5C4CCC(=O)NC4=O)CC3)c2)nn2c(C(=O)N[C@@H]3C[C@@H]3F)cnc12 (stereo partly drawn) [Example K647],> 100,> 100,> 100
CNC(=O)c1cnc(Nc2ccc(CN(C)CCCOC3CCN(c4ccc5c(c4)n(C)c(=O)n5C4CCC(=O)NC4=O)CC3)cn2)cc1Nc1cccc(-c2ncc(F)cn2)c1OC (stereo not drawn) [Example K157],> 100,< 1,> 100
CNc1cc(Nc2cccn(-c3cc(C(=O)NCCOCCOCCc4ccc5c(c4)n(C)c(=O)n5C4CCC(=O)NC4=O)ccn3)c2=O)nn2c(C(=O)N[C@@H]3C[C@@H]3F)cnc12 (stereo partly drawn) [Example K237],> 100,> 100,> 100
CNc1cc(Nc2cccn(-c3ccc(C(=O)N4CCN(CCc5ccc6c(c5)n(C)c(=O)n6C5CCC(=O)NC5=O)CC4)cn3)c2=O)nn2c(C(=O)N[C@@H]3C[C@@H]3F)cnc12 (stereo partly drawn) [Example K386],< 1,> 100,> 100
CNc1cc(Nc2cccc(CN3CCN(CCc4ccc5c(c4)n(C)c(=O)n5C4CCC(=O)NC4=O)CC3)c2)nn2c(C(=O)NC3CC3)cnc12 (stereo not drawn) [Example K612],> 100,> 100,10 to 100

SMILES,DC50 (TYK2 [1]) [nM],DC50 (TYK2 [2]) [nM],DC50 (TYK2 [3]) [nM]
Cn1c(=O)n(C2CCC(=O)NC2=O)c2ccc(CCCCNC(=O)c3ccccc3Nc3ccc4ncc(C(=O)N[C@@H]5C[C@@H]5F)n4n3)cc21 (stereo partly drawn) [Example K326],> 100,> 100,> 100
CNc1cc(N2CCc3c(N4CCN(C5CC6(CCN(c7ccc8c(c7)n(C)c(=O)n8C7CCC(=O)NC7=O)CC6)C5)CC4)cccc32)nn2c(C(=O)N[C@@H]3C[C@@H]3F)cnc12 (stereo partly drawn) [Example K646],> 100,> 100,< 1
CNc1cc(Nc2cccn(-c3ccc(CN4CCN(CC5CCN(c6ccc(-c7ccc8c(c7)n(C)c(=O)n8C7CCC(=O)NC7=O)cc6)CC5)CC4)cn3)c2=O)nn2c(C(=O)N[C@@H]3C[C@@H]3F)cnc12 (stereo partly drawn) [Example K514],> 100,> 100,< 1
CNc1cc(Nc2ccc(F)c(-c3ccc(Cc4ccc(-c5ccc6c(c5)n(C)c(=O)n6C5CCC(=O)NC5=O)cc4)cn3)c2OC)nn2c(C(=O)N[C@@H]3C[C@@H]3F)cnc12 (stereo partly drawn) [Example K648],> 100,> 100,1 to 10
CNc1cc(Nc2cccc(CN3CC4(CCN(c5cccc6c5n(C)c(=O)n6C5CCC(=O)NC5=O)CC4)C3)c2)nn2c(C(=O)NC3CC3)cnc12 (stereo not drawn) [Example K592],> 100,> 100,1 to 10
Cc1cc(C)cc(Nc2cc(NCCCCc3ccc4c(c3)n(C)c(=O)n4C3CCC(=O)NC3=O)c3ncc(C(=O)N[C@@H]4C[C@@H]4F)n3n2)c1 (stereo partly drawn) [Example K402],> 100,> 100,> 100
CNc1cc(Nc2cccn(-c3ccc(C(=O)NC4CCC(CN(C)C5CCN(Cc6ccc7c(c6)n(C)c(=O)n7C6CCC(=O)NC6=O)CC5)CC4)cn3)c2=O)nn2c(C(=O)N[C@@H]3C[C@@H]3F)cnc12 (stereo partly drawn) [Example K428],> 100,> 100,< 1
CNc1cc(Nc2cccn(-c3ccc(C(=O)NCc4ccc(N5CCC(N6CCC(c7ccc8c(c7)n(C)c(=O)n8C7CCC(=O)NC7=O)C6)CC5)cc4)cn3)c2=O)nn2c(C(=O)N[C@@H]3C[C@@H]3F)cnc12 (stereo partly drawn) [Example K370],> 100,< 1,< 1
CNc1cc(Nc2cccn(-c3cccc(C(=O)NCCOCCOCCc4cccc5c4n(C)c(=O)n5C4CCC(=O)NC4=O)c3)c2=O)nn2c(C(=O)N[C@@H]3C[C@@H]3F)cnc12 (stereo partly drawn) [Example K236],1 to 10,> 100,> 100
CNC(=O)c1cnc(Nc2cc(CN3CCN(c4cccc5c4n(C)c(=O)n5C4CCC(=O)NC4=O)CC3)ccn2)cc1Nc1cccc(-c2ncc(F)cn2)c1OC (stereo not drawn) [Example K176],< 1,1 to 10,> 100
CNc1cc(Nc2cccc(CN3CC4(C3)CN(c3ncc(C#Cc5ccc6c(c5)n(C)c(=O)n6C5CCC(=O)NC5=O)cn3)C4)c2)nn2c(C(=O)NC3CC3)cnc12 (stereo not drawn) [Example K604],> 100,> 100,< 1
CNc1cc(Nc2cccc(CN3CCC(OC4CC(c5cccc6c5n(C)c(=O)n6C5CCC(=O)NC5=O)C4)CC3)c2)nn2c(C(=O)NC3CC3)cnc12 (stereo not drawn) [Example K590],> 100,> 100,< 1
CNc1cc(Nc2cccn(-c3cc(C(=O)NCCCCc4cccc5c4n(C)c(=O)n5C4CCC(=O)NC4=O)ccn3)c2=O)nn2c(C(=O)N[C@@H]3C[C@@H]3F)cnc12 (stereo partly drawn) [Example K228],1 to 10,> 100,> 100
CNc1cc(N2CCCc3c(-c4ccc(CC5CCC(c6ccc(-c7ccc8c(c7)n(C)c(=O)n8C7CCC(=O)NC7=O)cc6)CC5)cn4)cccc32)nn2c(C(=O)N[C@@H]3C[C@@H]3F)cnc12 (stereo partly drawn) [Example K501],> 100,> 100,10 to 100
CNc1cc(N2CCN(c3ccc(CN4CCN(c5ccc(-c6ccc7c(c6)n(C)c(=O)n7C6CCC(=O)NC6=O)cc5)CC4)cc3)CC2)nn2c(C(=O)N[C@@H]3C[C@@H]3F)cnc12 (stereo partly drawn) [Example K620],> 100,> 100,> 100
CNc1cc(Nc2cccn(-c3ccc(C(=O)N4CCN(CC5CC(c6ccc(-c7ccc8c(c7)n(C)c(=O)n8C7CCC(=O)NC7=O)cc6)C5)CC4)cn3)c2=O)nn2c(C(=O)N[C@@H]3C[C@@H]3F)cnc12 (stereo partly drawn) [Example K373],> 100,< 1,> 100
CNC(=O)c1cnc(Nc2cc(C(=O)NCCCCCCc3cccc4c3n(C)c(=O)n4C3CCC(=O)NC3=O)ccn2)cc1Nc1cccc(-c2ncc(F)cn2)c1OC (stereo not drawn) [Example K193],1 to 10,1 to 10,> 100
